Results on two compounds are retold here after publication PMC7591571, “Identification of a juvenile-hormone signaling inhibitor via high-throughput screening of a chemical library” (Scientific Reports, 2020).

Structures are written as SMILES.

In general, EC50 refers to the midpoint of the concentration-response curve.

The subject of test [1] is T1, JH receptor, methoprene-tolerant protein (Met) / SRC, endogenous in BmN_JF&AR cells.
T1 construct: gene Met1; endogenous receptor of BmN cells; receptor not overexpressed; Met paralogue not specified
The test is described as follows: kJHRE luciferase reporter assay in stable BmN_JF&AR cells. The test is classed as cell-based. The settings on record: agonist, 25 °C, 20 h, pathway read-out.

Test [2] has the same test system. The description is as above. The test is classed as cell-based. The settings on record: inhibition of 1 nM JH I response; 25 °C; 20 h; competitive antagonist-like; pathway read-out, direct binding to receptor not demonstrated; read-out: EC50 (the source's name).

Regarding `CC/C(=C\CC/C(C)=C/C(=O)OC)CC[C@H]1O[C@@]1(C)CC` [JH I], the EC50 in test [1] came to 0.37 nM.
Take `CC(C)(C)c1ccc(OCCn2cncn2)c(Cl)c1` [JHSI48, N-[2-(4-tert-butyl-2-chlorophenoxy)ethyl]-1H-1,2,4-triazole]: in test [2], the IC50 is 320 nM.
